# ChEMBL document CHEMBL3232964, “Quinone-carbohydrate nonglucoside conjugates as a new type of cytotoxic agents: synthesis and determination of in vitro activity” (Eur J Med Chem, 2014)
# Calls of active or inactive are those of the source. The calls are words filed in the database; no cut-off is given here.
# Legend:
# [1] = biological target: Cellular tumor antigen p53 (Mus musculus) (UniProt P02340); experiment: Inhibition of p53-dependent transcriptional activity in tumor promotion-sensitive mouse JB6 Cl41 cells after 12 hrs by luciferase-based method; format: cell-based
# HeLa [2] = experiment: Cytotoxicity against human HeLa cells assessed as cell viability after 24 hrs by MTS assay; format: functional, cell-based
# HeLa [3] = experiment: Cytotoxicity against human HeLa cells assessed as cell viability after 48 hrs by MTS assay; format: functional, cell-based
# [4] = Cytotoxicity against tumor promotion-sensitive mouse JB6 Cl41 cells assessed as cell viability after 48 hrs by MTS assay; format: cell-based; conditions: JB6 Cl41, 48 h
# HeLa [5] = experiment: Cytotoxicity against human HeLa cells assessed as inhibition of number of colonies formed in soft agar after 14 days by microscopic analysis; format: functional
# HeLa [6] = experiment: Ratio of IC50 to INCC50 for human HeLa cells; format: functional
# [7] = Induction of apoptosis in tumor promotion-sensitive mouse JB6 Cl41 cells assessed as viable cells at 2.5 uM after 24 hrs by Annexin-V-FITC/propidium iodide staining based flow cytometry (reference value: 94.33 +/- 0.87%); format: cell-based; conditions: read-out: Activity
# [8] = Induction of apoptosis in tumor promotion-sensitive mouse JB6 Cl41 cells assessed as dead cells at 2.5 uM after 24 hrs by Annexin-V-FITC/propidium iodide staining based flow cytometry (reference value: 2.99 +/- 0.82%); format: cell-based; conditions: jb6 cl41, 24 h
# [9] = Induction of apoptosis in tumor promotion-sensitive mouse JB6 Cl41 cells assessed as early apoptotic cells at 5 uM after 24 hrs by Annexin-V-FITC/propidium iodide staining based flow cytometry (reference value: 2.15 +/- 1.18%); format: cell-based; conditions: jb6 cl41, 24 h
# [10] = Induction of apoptosis in tumor promotion-sensitive mouse JB6 Cl41 cells assessed as late apoptotic/necrotic cells at 5 uM after 24 hrs by Annexin-V-FITC/propidium iodide staining based flow cytometry (reference value: 0.53 +/- 0.47%); format: cell-based; conditions: jb6 cl41, 24 h
# [11] = Induction of apoptosis in tumor promotion-sensitive mouse JB6 Cl41 cells assessed as viable cells at 5 uM after 24 hrs by Annexin-V-FITC/propidium iodide staining based flow cytometry (reference value: 94.33 +/- 0.87%); format: cell-based; conditions: read-out: Activity
# [12] = Induction of apoptosis in tumor promotion-sensitive mouse JB6 Cl41 cells assessed as dead cells at 5 uM after 24 hrs by Annexin-V-FITC/propidium iodide staining based flow cytometry (reference value: 2.99 +/- 0.82%); format: cell-based; conditions: jb6 cl41, 24 h
# [13] = Induction of apoptosis in tumor promotion-sensitive mouse JB6 Cl41 cells assessed as early apoptotic cells at 10 uM after 24 hrs by Annexin-V-FITC/propidium iodide staining based flow cytometry (reference value: 2.15 +/- 1.18%); format: cell-based; conditions: jb6 cl41, 24 h
# [14] = Induction of apoptosis in tumor promotion-sensitive mouse JB6 Cl41 cells assessed as late apoptotic/necrotic cells at 10 uM after 24 hrs by Annexin-V-FITC/propidium iodide staining based flow cytometry (reference value: 0.53 +/- 0.47%); format: cell-based; conditions: jb6 cl41, 24 h
# [15] = Induction of apoptosis in tumor promotion-sensitive mouse JB6 Cl41 cells assessed as viable cells at 10 uM after 24 hrs by Annexin-V-FITC/propidium iodide staining based flow cytometry (reference value: 94.33 +/- 0.87%); format: cell-based; conditions: read-out: Activity
# [16] = Induction of apoptosis in tumor promotion-sensitive mouse JB6 Cl41 cells assessed as dead cells at 10 uM after 24 hrs by Annexin-V-FITC/propidium iodide staining based flow cytometry (reference value: 2.99 +/- 0.82%); format: cell-based; conditions: jb6 cl41, 24 h
# [17] = Induction of apoptosis in tumor promotion-sensitive mouse JB6 Cl41 cells assessed as early apoptotic cells at 20 uM after 24 hrs by Annexin-V-FITC/propidium iodide staining based flow cytometry (reference value: 2.15 +/- 1.18%); format: cell-based; conditions: jb6 cl41, 24 h
# [18] = Induction of apoptosis in tumor promotion-sensitive mouse JB6 Cl41 cells assessed as late apoptotic/necrotic cells at 20 uM after 24 hrs by Annexin-V-FITC/propidium iodide staining based flow cytometry (reference value: 0.53 +/- 0.47%); format: cell-based; conditions: jb6 cl41, 24 h
# [19] = Induction of apoptosis in tumor promotion-sensitive mouse JB6 Cl41 cells assessed as viable cells at 20 uM after 24 hrs by Annexin-V-FITC/propidium iodide staining based flow cytometry (reference value: 94.33 +/- 0.87%); format: cell-based; conditions: read-out: Activity
# [20] = Induction of apoptosis in tumor promotion-sensitive mouse JB6 Cl41 cells assessed as dead cells at 20 uM after 24 hrs by Annexin-V-FITC/propidium iodide staining based flow cytometry (reference value: 2.99 +/- 0.82%); format: cell-based; conditions: jb6 cl41, 24 h
# HeLa [21] = experiment: Induction of p53-independent apoptosis in human HeLa cells assessed as early apoptotic cells at 2.5 uM after 24 hrs by Annexin-V-FITC/propidium iodide double staining based flow cytometry (reference value: 6.71 +/- 4.41%); format: functional
# HeLa [22] = experiment: Induction of p53-independent apoptosis in human HeLa cells assessed as late apoptotic/necrotic cells at 2.5 uM after 24 hrs by Annexin-V-FITC/propidium iodide double staining based flow cytometry (reference value: 0.88 +/- 0.72%); format: functional
# HeLa [23] = experiment: Induction of p53-independent apoptosis in human HeLa cells assessed as viable cells at 2.5 uM after 24 hrs by Annexin-V-FITC/propidium iodide double staining based flow cytometry (reference value: 88.52 +/- 11%); format: functional; conditions: read-out: Activity
# HeLa [24] = experiment: Induction of p53-independent apoptosis in human HeLa cells assessed as dead cells at 2.5 uM after 24 hrs by Annexin-V-FITC/propidium iodide double staining based flow cytometry (reference value: 3.89 +/- 0.3%); format: functional
# HeLa [25] = experiment: Induction of p53-independent apoptosis in human HeLa cells assessed as early apoptotic cells at 5 uM after 24 hrs by Annexin-V-FITC/propidium iodide double staining based flow cytometry (reference value: 6.71 +/- 4.41%); format: functional
# HeLa [26] = experiment: Induction of p53-independent apoptosis in human HeLa cells assessed as late apoptotic/necrotic cells at 5 uM after 24 hrs by Annexin-V-FITC/propidium iodide double staining based flow cytometry (reference value: 0.88 +/- 0.72%); format: functional
# HeLa [27] = experiment: Induction of p53-independent apoptosis in human HeLa cells assessed as viable cells at 5 uM after 24 hrs by Annexin-V-FITC/propidium iodide double staining based flow cytometry (reference value: 88.52 +/- 11%); format: functional; conditions: read-out: Activity
# HeLa [28] = experiment: Induction of p53-independent apoptosis in human HeLa cells assessed as dead cells at 5 uM after 24 hrs by Annexin-V-FITC/propidium iodide double staining based flow cytometry (reference value: 3.89 +/- 0.3%); format: functional
# HeLa [29] = experiment: Induction of p53-independent apoptosis in human HeLa cells assessed as early apoptotic cells at 10 uM after 24 hrs by Annexin-V-FITC/propidium iodide double staining based flow cytometry (reference value: 6.71 +/- 4.41%); format: functional
# HeLa [30] = experiment: Induction of p53-independent apoptosis in human HeLa cells assessed as late apoptotic/necrotic cells at 10 uM after 24 hrs by Annexin-V-FITC/propidium iodide double staining based flow cytometry (reference value: 0.88 +/- 0.72%); format: functional
# HeLa [31] = experiment: Induction of p53-independent apoptosis in human HeLa cells assessed as viable cells at 10 uM after 24 hrs by Annexin-V-FITC/propidium iodide double staining based flow cytometry (reference value: 88.52 +/- 11%); format: functional; conditions: read-out: Activity
# HeLa [32] = experiment: Induction of p53-independent apoptosis in human HeLa cells assessed as dead cells at 10 uM after 24 hrs by Annexin-V-FITC/propidium iodide double staining based flow cytometry (reference value: 3.89 +/- 0.3%); format: functional
# HeLa [33] = experiment: Induction of p53-independent apoptosis in human HeLa cells assessed as early apoptotic cells at 20 uM after 24 hrs by Annexin-V-FITC/propidium iodide double staining based flow cytometry (reference value: 6.71 +/- 4.41%); format: functional
# HeLa [34] = experiment: Induction of p53-independent apoptosis in human HeLa cells assessed as late apoptotic/necrotic cells at 20 uM after 24 hrs by Annexin-V-FITC/propidium iodide double staining based flow cytometry (reference value: 0.88 +/- 0.72%); format: functional
# HeLa [35] = experiment: Induction of p53-independent apoptosis in human HeLa cells assessed as viable cells at 20 uM after 24 hrs by Annexin-V-FITC/propidium iodide double staining based flow cytometry (reference value: 88.52 +/- 11%); format: functional; conditions: read-out: Activity
# HeLa [36] = experiment: Induction of p53-independent apoptosis in human HeLa cells assessed as dead cells at 20 uM after 24 hrs by Annexin-V-FITC/propidium iodide double staining based flow cytometry (reference value: 3.89 +/- 0.3%); format: functional
# [37] = Induction of apoptosis in tumor promotion-sensitive mouse JB6 Cl41 cells assessed as early apoptotic cells at 2.5 uM after 24 hrs by Annexin-V-FITC/propidium iodide staining based flow cytometry (reference value: 2.15 +/- 1.18%); format: cell-based; conditions: jb6 cl41, 24 h
# [38] = Induction of apoptosis in tumor promotion-sensitive mouse JB6 Cl41 cells assessed as late apoptotic/necrotic cells at 2.5 uM after 24 hrs by Annexin-V-FITC/propidium iodide staining based flow cytometry (reference value: 0.53 +/- 0.47%); format: cell-based; conditions: jb6 cl41, 24 h
# Sequence of Cellular tumor antigen p53 (Mus musculus) (P02340 whole entry): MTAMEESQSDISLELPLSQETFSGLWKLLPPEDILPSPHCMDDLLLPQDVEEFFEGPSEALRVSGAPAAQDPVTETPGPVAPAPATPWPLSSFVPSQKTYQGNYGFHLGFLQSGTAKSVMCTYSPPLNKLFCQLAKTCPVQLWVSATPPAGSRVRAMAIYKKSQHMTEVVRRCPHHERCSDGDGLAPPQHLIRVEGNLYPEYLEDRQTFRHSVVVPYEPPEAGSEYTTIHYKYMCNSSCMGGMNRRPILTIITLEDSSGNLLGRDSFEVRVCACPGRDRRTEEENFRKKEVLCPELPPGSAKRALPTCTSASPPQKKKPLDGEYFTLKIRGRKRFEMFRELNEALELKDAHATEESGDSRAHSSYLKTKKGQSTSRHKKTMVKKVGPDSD
compound,measurement,setting,value
O=C1C=C(O)C(=O)c2c(O)ccc(O)c21,inhibition,[1],Active
same,IC50,HeLa [2],42.4 µM
same,IC50,HeLa [3],37.9 µM
same,IC50,[4],71.2 µM
same,INCC50,HeLa [5],8.06 µM
same,Ratio,HeLa [6],4.71
O=C1C=C(O)c2c(O)cccc2C1=O,inhibition,[1],Active
same,IC50,HeLa [2],196 µM
same,IC50,HeLa [3],187 µM
same,IC50,[4],> 200 µM
same,INCC50,HeLa [5],109.37 µM
same,Ratio,HeLa [6],1.71
COC1=CC(=O)c2c(O)cccc2C1=O,inhibition,[1],Active
same,IC50,HeLa [2],1.18 µM
same,IC50,HeLa [3],1.29 µM
same,IC50,[4],1.93 µM
same,INCC50,HeLa [5],0.59 µM
same,Ratio,HeLa [6],2.19
O=C1C=C(O)c2cccc(O)c2C1=O,inhibition,[1],Active
same,IC50,HeLa [2],124 µM
same,IC50,HeLa [3],118 µM
same,IC50,[4],193 µM
same,INCC50,HeLa [5],35.51 µM
same,Ratio,HeLa [6],3.33
COC1=CC(=O)c2cccc(O)c2C1=O,inhibition,[1],Active
same,IC50,HeLa [2],0.96 µM
same,IC50,HeLa [3],1.04 µM
same,IC50,[4],1.48 µM
same,INCC50,HeLa [5],0.61 µM
same,Ratio,HeLa [6],1.7
CO[C@H]1O[C@H](COC2=CC(=O)c3c(O)ccc(O)c3C2=O)[C@@H](O)[C@H](O)[C@H]1O,"viability at 24 h, 2.5 µM",[7],91.7%
same,Activity,[8],2.99%
same,Activity,[9],1.8%
same,Activity,[10],2.96%
same,"viability at 24 h, 5 µM",[11],88.8%
same,Activity,[12],0.4%
same,Activity,[13],7.41%
same,Activity,[14],1.91%
same,"viability at 24 h, 10 µM",[15],87.5%
same,Activity,[16],3.17%
same,Activity,[17],40.96%
same,Activity,[18],13.91%
same,"viability at 24 h, 20 µM",[19],13.4%
same,Activity,[20],31.75%
same,inhibition,[1],Active
same,IC50,HeLa [2],7.54 µM
same,IC50,HeLa [3],7.89 µM
same,IC50,[4],8.47 µM
same,INCC50,HeLa [5],4.03 µM
same,Ratio,HeLa [6],1.96
same,Activity,HeLa [21],8.28%
same,Activity,HeLa [22],1.55%
same,viability at 2.5 µM,HeLa [23],87.4%
same,Activity,HeLa [24],2.8%
same,Activity,HeLa [25],6.44%
same,Activity,HeLa [26],1.35%
same,viability at 5 µM,HeLa [27],89.5%
same,Activity,HeLa [28],2.67%
same,Activity,HeLa [29],7.99%
same,Activity,HeLa [30],1.74%
same,viability at 10 µM,HeLa [31],87.5%
same,Activity,HeLa [32],2.77%
same,Activity,HeLa [33],14.06%
same,Activity,HeLa [34],24.44%
same,viability at 20 µM,HeLa [35],30.1%
same,Activity,HeLa [36],31.42%
same,Activity,[37],1.84%
same,Activity,[38],2.46%
